ChEMBL document CHEMBL2073741, “MRP8, ATP-binding cassette C11 (ABCC11), is a cyclic nucleotide efflux pump and a resistance factor for fluoropyrimidines 2',3'-dideoxycytidine and 9'-(2'-phosphonylmethoxyethyl)adenine” (J Biol Chem, 2003)

Target: ATP-binding cassette sub-family C member 11 (Homo sapiens) (UniProt Q96J66)
Test: TP_TRANSPORTER: transport into inside-out membrane vesicles in membrane vesicle from MRP8-2-expressing LLC-PK1 cells
Type: functional, cell membranes

Sequence of ATP-binding cassette sub-family C member 11 (Homo sapiens) (Q96J66 whole entry): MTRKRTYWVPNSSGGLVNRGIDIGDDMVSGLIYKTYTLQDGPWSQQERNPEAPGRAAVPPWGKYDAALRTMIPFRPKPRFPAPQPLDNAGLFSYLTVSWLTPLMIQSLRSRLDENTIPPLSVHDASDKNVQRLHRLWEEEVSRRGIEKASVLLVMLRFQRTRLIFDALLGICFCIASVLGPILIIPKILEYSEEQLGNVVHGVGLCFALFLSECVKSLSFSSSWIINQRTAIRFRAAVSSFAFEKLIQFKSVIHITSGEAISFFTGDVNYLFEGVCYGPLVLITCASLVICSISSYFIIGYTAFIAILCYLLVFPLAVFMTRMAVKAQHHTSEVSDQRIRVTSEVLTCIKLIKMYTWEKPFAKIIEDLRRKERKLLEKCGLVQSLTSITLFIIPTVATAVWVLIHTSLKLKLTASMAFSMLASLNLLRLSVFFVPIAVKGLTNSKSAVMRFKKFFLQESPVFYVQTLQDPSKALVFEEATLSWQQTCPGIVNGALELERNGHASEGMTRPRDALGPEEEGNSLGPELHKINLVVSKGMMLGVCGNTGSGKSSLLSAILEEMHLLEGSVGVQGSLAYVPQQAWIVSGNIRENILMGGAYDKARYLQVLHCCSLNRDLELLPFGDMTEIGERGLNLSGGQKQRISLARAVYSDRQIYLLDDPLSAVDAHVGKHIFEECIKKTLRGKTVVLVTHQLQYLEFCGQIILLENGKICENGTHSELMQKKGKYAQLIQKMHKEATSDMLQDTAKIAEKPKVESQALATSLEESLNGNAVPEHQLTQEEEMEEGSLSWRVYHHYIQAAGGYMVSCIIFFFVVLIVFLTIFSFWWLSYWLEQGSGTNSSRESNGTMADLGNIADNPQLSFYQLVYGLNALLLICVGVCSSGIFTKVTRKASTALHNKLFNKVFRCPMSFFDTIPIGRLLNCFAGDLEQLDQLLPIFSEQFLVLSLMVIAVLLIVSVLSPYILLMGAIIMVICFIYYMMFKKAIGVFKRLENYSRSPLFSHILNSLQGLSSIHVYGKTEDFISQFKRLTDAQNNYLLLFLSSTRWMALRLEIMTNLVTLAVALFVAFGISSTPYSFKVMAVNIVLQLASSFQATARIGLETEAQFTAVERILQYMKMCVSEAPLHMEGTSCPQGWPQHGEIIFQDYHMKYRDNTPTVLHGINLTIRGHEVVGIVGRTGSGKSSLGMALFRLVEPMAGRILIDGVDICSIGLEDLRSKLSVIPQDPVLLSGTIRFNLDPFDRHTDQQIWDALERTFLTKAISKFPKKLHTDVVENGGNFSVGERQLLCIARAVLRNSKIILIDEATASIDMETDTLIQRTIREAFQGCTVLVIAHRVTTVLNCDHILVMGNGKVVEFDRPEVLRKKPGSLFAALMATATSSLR

Activity: substrate []
Compound: O=c1[nH]c(=O)n([C@H]2C[C@H](O)[C@@H](COP(=O)(O)O)O2)cc1F
